Assay results: publication PMC7910296, “Phosphorescent Ir(III) complexes conjugated with oligoarginine peptides serve as optical probes for in vivo microvascular imaging” (Scientific Reports, 2021)

How the values were obtained:
vascular endothelium = experiment: In vivo luminescence intensity and lifetime imaging after intravenous administration
[1] = Phosphorescence quantum yield (absolute photoluminescence quantum yield system); format: physicochemical; conditions: room temperature
Protocol: (§1) Phosphorescence lifetimes were measured with a time-correlated single-photon counting fluorimeter (Quantaurus-Tau C11367G, Hamamatsu Photonics). A laser diode (M12488-35, Hamamatsu Photonics; 481 nm, pulse width 70 ps) was used as the excitation light source. The temperature of the sample solution was controlled by circulating water through a jacket cuvette holder from a temperature controlled bath (RTE7, Neslab). Phosphorescence quantum yields were determined on an absolute photoluminescence quantum yield measurement system (C9920-02, Hamamatsu Photonics) consisting of a Xe arc lamp, a monochromator, an integrating sphere, and a multichannel detector[41].

[2] = Phosphorescence lifetime in solution (time-correlated single-photon counting); format: physicochemical; conditions: 37 °C
Protocol: as §1

[3] = Absorption and emission spectra; format: physicochemical; conditions: MeCN with 1% DMSO, room temperature
Protocol: Absorption and emission spectra were recorded on a UV–Vis spectrophotometer (Ubest V-550, JASCO) and a photonic multichannel analyzer PMA-12 (C11027-01, Hamamatsu Photonics) equipped with a monochromatized Xe arc lamp, respectively. The emission spectra were fully corrected for spectral sensitivity.

[4] = Water solubility / aggregate formation in aqueous solution; format: physicochemical
Description: Ir(III) complexes BTQ-Rn (n = 4, 8, 12, 16) with different lengths of arginine peptides in the ligand (Fig. 1) were obtained by chemical synthesis, including solid-phase synthesis of the peptides. The synthetic details and characterization of BTQ-Rn are described in Supplementary Information. We first examined the spectral and photophysical properties of the synthesized BTQ-Rn (n = 4, 8, 12, 16) in MeCN and Tris–HCl buffer (pH 7.0) and compared them to the parent complex BTQphen. Figure 2A,B show the absorption and emission spectra of BTQphen and BTQ-R12 (a representative BTQ-Rn) in MeCN. […] The first absorption band of BTQ-R12, which has a molar absorption coefficient of 7600 mol^−1 dm^3 cm^−1 at 496 nm, can be assigned to the singlet metal-to-ligand charge transfer (^1MLCT) transition. Emissions appear in the red to near-infrared region, with the maximum at around 660 nm, and show a very large Stokes shift. The emission decay profiles follow single-exponential functions, with lifetimes of 5.7 μs for BTQphen and 5.9 μs for BTQ-R12 in deaerated MeCN, and 0.28 μs for BTQphen and BTQ-R12 in aerated MeCN (Table 1). The extremely long lifetimes in deaerated solution and significant quenching by dissolved oxygen indicate that emission is due to phosphorescence. […]

Row | Compound | localization in liver (vascular endothelium; living mice, PC6S 50 nmol iv, fluorescence intensity images of liver) | Φp, phosphorescence quantum yield ([1]; aerated MeCN) | Φp0, phosphorescence quantum yield ([1]; deaerated MeCN) | τp, phosphorescence lifetime ([2]; aerated MeCN) [µs] | τp0, phosphorescence lifetime ([2]; deaerated MeCN) [µs] | emission maximum [3] | aggregate formation ([4]; aqueous solution / Tris–HCl buffer (pH 7.0), from spectra and single-exponential decay) | water solubility ([4]; aqueous solution, in words) | localization in renal cortex (vascular endothelium; mouse kidney, about 1 h after intravenous administration (100 nmol; FITC-lectin 1 mg/mL, 50 μL), luminescence intensity images)
1 | CCN(CC)c1ccc2cc3cc(-c4nc5ccccc5s4)c(=O)oc3cc2c1 [PC6S, reference compound] | taken up into hepatocytes and likely accumulates in LDs and the ER |  |  |  |  |  |  |  | 
2 | (btq)2Ir(phen-pipe) [BTQphen] |  | 0.015 | 0.32 | 0.28 | 5.7 | around 660 nm | forms aggregates | extremely low water solubility | localized in tubular cells rather than in capillaries
